Results as given in article PMC3129543 (Molecular informatics, 2011).
Like-named read-outs stand apart in the source and are kept apart here.

How the values were obtained:
[1] = 1 and derivatives thereof; target not determined; cited from earlier work
[2] = molecular target: T1, glutamate racemase from Bacillus subtilis (RacE) (Bacillus subtilis, UniProt P94556); assay type: biochemical
[3] = 1 and derivatives thereof; cited from earlier work
[4] = molecular target: T1, glutamate racemase from Bacillus subtilis (RacE); details: BsGR; presented previously; cited from earlier work

T1 sequence (P94556 whole entry): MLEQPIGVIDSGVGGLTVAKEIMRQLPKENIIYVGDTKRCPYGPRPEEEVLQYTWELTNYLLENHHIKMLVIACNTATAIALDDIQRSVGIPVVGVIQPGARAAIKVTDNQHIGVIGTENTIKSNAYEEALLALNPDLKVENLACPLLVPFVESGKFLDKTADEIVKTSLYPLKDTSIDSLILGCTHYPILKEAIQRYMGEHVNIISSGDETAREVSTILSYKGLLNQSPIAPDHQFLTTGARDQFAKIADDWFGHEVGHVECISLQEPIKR

| SMILES | antibacterial and antifungal activity [1] | ligand efficiency [2] [kcal/mol/heavy atom] | mode of inhibition ([2]; verified by global fitting to varying inhibition models) | toxicity [3] | mode of inhibition [4] |
| --- | --- | --- | --- | --- | --- |
| O=S(=O)(O)c1nc2ccccc2[nH]1 [Compound 1, benzimidazole-2-sulfonic acid] | antibacterial and antifungal activity | 0.53 | competitive inhibitor | low toxicity |  |
| O=c1c(O)c(O)c(=O)c1=O [Compound 2, Croconic acid] |  |  |  |  | competitive inhibitors |
| O=S(=O)(O)c1ccc(O)c(S(=O)(=O)O)c1 [Compound 3, 4-Hydroxy-1,3-benzenedisulfonic acid] |  |  |  |  | competitive inhibitors |
| O=C(O)c1cccc(C(=O)O)n1 [Compound 9, dipicolinic acid] |  |  |  |  | competitive inhibitors |
